Measurements as given in US10138207B2, “Benzomorphan analogs and the use thereof” (priority 2012, dated 2018).
Read-outs that look alike come from different tables or passages of the source.

Legend:
[1] = target: T1, μ-opioid receptor (Homo sapiens, UniProt P35372); assay: μ-opioid receptor [35S]GTPγS functional assay, HEK-293 or CHO cells
[2] = target: κ opioid receptor (Homo sapiens, UniProt P41145); assay: κ-opioid receptor [35S]GTPγS functional assay, U-2 OS cells; assay type: biochemical; parameters: expressed in transfected cells; host or cells: U-2 OS (in-house membranes); conditions: for Emax: relative to U69,593, read-out: GTPγS κ Emax
Sequence of κ opioid receptor (P41145 whole entry): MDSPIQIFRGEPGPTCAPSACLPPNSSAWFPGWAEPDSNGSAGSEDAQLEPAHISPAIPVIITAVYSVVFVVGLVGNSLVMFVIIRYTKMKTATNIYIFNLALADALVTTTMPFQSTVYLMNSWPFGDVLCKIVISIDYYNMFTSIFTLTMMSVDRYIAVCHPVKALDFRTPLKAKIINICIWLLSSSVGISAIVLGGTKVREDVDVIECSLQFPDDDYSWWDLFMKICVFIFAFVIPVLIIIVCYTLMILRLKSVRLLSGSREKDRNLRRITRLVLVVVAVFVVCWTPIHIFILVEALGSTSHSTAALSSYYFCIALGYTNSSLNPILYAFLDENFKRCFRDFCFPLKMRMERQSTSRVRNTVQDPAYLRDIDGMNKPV

[3] = target: T1, μ-opioid receptor; assay: μ-opioid receptor [35S]GTPγS functional assay, U-2 OS cells; assay type: biochemical; parameters: expressed in transfected cells; host or cells: U-2 OS; conditions: for Emax: relative to DAMGO, read-out: GTPγS μ Emax
[4] = U-2 OS cells, read-out: GTPγS κ EC50
[5] = U-2 OS cells, read-out: GTPγS μ EC50
[6] = U-2 OS cells, bound in μM, read-out: GTPγS κ EC50
[7] = U-2 OS cells, bound in μM, read-out: GTPγS μ EC50

T1 sequence (P35372 whole entry, species assumed): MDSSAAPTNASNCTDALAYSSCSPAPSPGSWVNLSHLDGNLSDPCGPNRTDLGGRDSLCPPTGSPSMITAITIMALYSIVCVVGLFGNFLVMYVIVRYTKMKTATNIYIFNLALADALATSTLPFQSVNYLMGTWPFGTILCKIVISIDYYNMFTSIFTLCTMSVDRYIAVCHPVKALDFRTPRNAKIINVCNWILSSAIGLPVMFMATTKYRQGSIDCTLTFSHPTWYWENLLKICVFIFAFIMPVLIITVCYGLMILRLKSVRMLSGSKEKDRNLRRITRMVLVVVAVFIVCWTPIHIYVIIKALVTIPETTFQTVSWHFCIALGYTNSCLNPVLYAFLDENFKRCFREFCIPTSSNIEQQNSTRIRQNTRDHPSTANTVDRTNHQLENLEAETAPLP

COc1ccc2c(c1)[C@@]1(C)CCN(C)C(C2)C1N1CCC(N)CC1 (stereo partly drawn) [Compound 70, 1-((6R)-8-methoxy-3,6-dimethyl-1,2,3,4,5,6-hexahydro-2,6-methanobenzo[d]azocin-11-yl)piperidin-4-amine]
EC50 [1]: 9380 ± 501 nM | Emax ([1]; read-out: GTPγS μ Emax): 24.7 ± 0.88%

C[C@]12CCN(CC3CC3)[C@H](Cc3ccc(O)cc31)[C@@H]2NCCc1ccc(S(N)(=O)=O)cc1 [Compound 96, 4-(2-(((2R,6S,11R)-3-(cyclopropylmethyl)-8-hydroxy-6-methyl-1,2,3,4,5,6-hexahydro-2,6-methanobenzo[d]azocin-11-yl)amino)ethyl)benzenesulfonamide]
EC50 [2, 4]: 0.00641 ± 0.00167 µM | EC50 [3, 5]: 0.00601 ± 0.00051 µM | Emax ([3]; U-2 OS cells): 32.3 ± 0.88%

C[C@]12CCN(CC3CC3)[C@H](Cc3ccc(O)cc31)[C@H]2NCCc1ccc(S(N)(=O)=O)cc1 [Compound 97, 4-(2-(((2R,6S,11S)-3-(cyclopropylmethyl)-8-hydroxy-6-methyl-1,2,3,4,5,6-hexahydro-2,6-methanobenzo[d]azocin-11-yl)amino)ethyl)benzenesulfonamide]
EC50 [2, 6]: > 20 µM | Emax ([2]; U-2 OS cells): 0% | EC50 [3, 7]: > 20 µM | Emax ([3]; U-2 OS cells): 2.5%

CN1CC[C@@]2(C)c3cc(O)ccc3C[C@@H]1[C@@H]2NCCc1ccc(Cl)c(Cl)c1 [Compound 98, (2R,6S,11R)-11-((3,4-dichlorophenethyl)amino)-3,6-dimethyl-1,2,3,4,5,6-hexahydro-2,6-methanobenzo[d]azocin-8-ol]
EC50 [2, 4]: 0.0286 ± 0.00321 µM | Emax ([2]; U-2 OS cells): 95.3 ± 3.84% | EC50 [3, 5]: 0.0003 ± 2.7e-05 µM | Emax ([3]; U-2 OS cells): 104 ± 3.76%

CN1CC[C@@]2(C)c3cc(O)ccc3C[C@@H]1[C@H]2NCCc1ccc(Cl)c(Cl)c1 [Compound 99, (2R,6S,11S)-11-((3,4-dichlorophenethyl)amino)-3,6-dimethyl-1,2,3,4,5,6-hexahydro-2,6-methanobenzo[d]azocin-8-ol]
EC50 [2, 4]: 0.00144 ± 5.3e-05 µM | Emax ([2]; U-2 OS cells): 72.3 ± 4.67% | EC50 [3, 5]: 0.00013 ± 1e-05 µM | Emax ([3]; U-2 OS cells): 71 ± 2%

COc1ccc(CCN[C@H]2[C@H]3Cc4ccc(O)cc4[C@]2(C)CCN3C)cc1 [Compound 100, (2R,6S,11R)-11-((4-methoxyphenethyl)amino)-3,6-dimethyl-1,2,3,4,5,6-hexahydro-2,6-methanobenzo[d]azocin-8-ol]
EC50 [2, 4]: 1.76 ± 0.364 µM | Emax ([2]; U-2 OS cells): 45 ± 2.08% | EC50 [3, 5]: 0.04 ± 0.00325 µM | Emax ([3]; U-2 OS cells): 102 ± 1.45%

CN1CC[C@@]2(C)c3cc(O)ccc3C[C@@H]1[C@@H]2NCCc1ccc(F)cc1 [Compound 101, (2R,6S,11R)-11-((4-fluorophenethyl)amino)-3,6-dimethyl-1,2,3,4,5,6-hexahydro-2,6-methanobenzo[d]azocin-8-ol]
EC50 [2]: 1.08 ± 0.113 µM | Emax ([2]; U-2 OS cells): 66.7 ± 1.2% | EC50 ([3]; GTPγS μ EC50, U-2 OS cells): 0.00373 ± 0.00021 µM

C[C@]12CCN(CC3CC3)[C@H](Cc3ccc(O)cc31)[C@H]2NCC1CCNCC1 [Compound 102, (2R,6S,11S)-3-(cyclopropylmethyl)-6-methyl-11-((piperidin-4-ylmethyl)amino)-1,2,3,4,5,6-hexahydro-2,6-methanobenzo[d]azocin-8-ol]
EC50 [2, 6]: > 20 µM | Emax ([2]; U-2 OS cells): -1% | EC50 [3, 7]: > 20 µM | Emax ([3]; U-2 OS cells): 2.5%

CN1CC[C@@]2(C)c3cc(O)ccc3C[C@@H]1[C@H]2NCCc1ccncc1 [Compound 103, (2R,6S,11S)-3,6-dimethyl-11-((2-(pyridin-4-yl)ethyl)amino)-1,2,3,4,5,6-hexahydro-2,6-methanobenzo[d]azocin-8-ol]
EC50 [2, 4]: 0.287 ± 0.062 µM | Emax ([2]; U-2 OS cells): 83 ± 8.02% | EC50 [3, 5]: 0.117 ± 0.00282 µM | Emax ([3]; U-2 OS cells): 77.5 ± 1.26%

CN1CC[C@@]2(C)c3cc(O)ccc3C[C@@H]1[C@@H]2NCCc1cccs1 [Compound 104, (2R,6S,11R)-3,6-dimethyl-11-((2-(thiophen-2-yl)ethyl)amino)-1,2,3,4,5,6-hexahydro-2,6-methanobenzo[d]azocin-8-ol]
EC50 [2, 4]: 1.26 ± 0.229 µM | Emax ([2]; U-2 OS cells): 79.7 ± 5.9% | EC50 [3, 5]: 0.0513 ± 0.00526 µM | Emax ([3]; U-2 OS cells): 105.3 ± 0.88%
